Laboratory results from patent US10975063B2, “Compound, and production method thereof, and methods of treatment using the compound” (ABIVAX, priority 2009, dated 2021).
pIC50: −log10 of the molar value.

Legend:
HIV-1 = experiment: Inhibition of HIV-1 production (p24 antigen) in infected peripheral blood mononuclear cells (PBMCs); assay type: cell-based, HIV-1 (AdaM) in PBMCs of healthy donors; conditions: for Inhibition of p24 production in HIV infected PBMCs from different donors: tested molecules at 10 μM, p24 after 3 and 6 days of infection, number of donors with inhibition out of donors tested
Description: Within this framework, the peripheral blood mononuclear cells (PBMCs) of healthy donors are isolated by centrifugation on a FICOLL gradient. The cells are then cultivated to a density of 2.5×10^6 cells/ml with RPMI medium supplemented with 1% inactivated human AB serum, then incubated at 37° C., 5% CO2 for an additional hour. The peripheral blood mononuclear cells are then recovered and cultivated for two days in RPMI medium supplemented with 10% fetal calf serum.
A standard experiment using 96 plates to test 30 molecules in triplicates including positive and negative controls, is performed as follows:
50 10^6 Ficoll purified PBMCs (10% DMSO 90% FCS) are washed with RPMI 10% FCS and resuspended in 25 ml of RPMI 10% FCS, glutamax containing 1000 U/ml of IL2 and 5 μg/ml PHA. The cells are then incubated for 3 days at 37° C. before to be washed with 50 ml PBS then with 50 ml RPMI 10% FCS. The cells are resuspended in 100 μl of RPMI 10% FCS containing 100 U/ml IL2 and seeded in 96 wells (1.5 10^5 cells/well). Viral infection is performed with 1 ng of AdaM/well. 100 μl of tested molecules at concentration of 10 μM are added to each well. Virus production is determined by p24 antigen immunosorbent assays after 3 and 6 days of infection (Kit Innogenetics). Typically PBMCs are prepared from several healthy donors (around 11 different donors). Dose response curves were then established with selected compounds to determine IC50.

[1] = system: LMNA aberrant splicing (MutLMNA-luc cell line); experiment: Luciferase assay for repression of LMNA aberrant splicing in stable 293 MutLMNA-luc cell line (293FLP LMNA LUC cells #8); assay type: cell-based; conditions: 48 hours, compared to control untreated MutLMNA-luc cell line, read-out: Increase of luciferase activity
Source text: Advantage has been taken of the luciferase system. The luciferase assay is an extremely sensitive and rapid assay. Linear results are seen over at least eight orders of magnitude of enzyme concentration. Moreover, the luciferase assay is well suited for high-throughput applications. To conduct a Mid-throughput screening (MTS) for compounds repressing LMNA aberrant splicing, we have constructed a plasmid in which exon 11, intron 11 and part of exon 12 of LMNA gene were fused with luciferase cDNA (FIG. 2). Both wild type (WtLMNA-luc)(SEQ ID NO: 1) and mutant (MutLMNA-luc)(SEQ ID NO: 2) substrate harbouring exon 11 mutation have been constructed. In these constructs we have generated a single initiation codon in exon 11 such as correct splicing will lead to luciferase expression, while aberrant splicing will skip the initiation codon and thereby prevent luciferase expression. After transfection in HeLa cells, Luciferase assays (FIG. 2B) and RT-PCR (FIG. 2C) indicate that WtLMNA-luc produces predominantly wild type splicing and large amount of luciferase activity, whereas MutLMNA-luc recapitulate the aberrant splicing profile with reduced luciferase expression (FIGS. 2 B and C, compare Wt and Mut). In order to use this system in MTS, we have generated a stable 293 cell lines containing a single integrated copy of luciferase reporter containing LMNA mutation (MutLMNA-luc cell line) using the flp system from INVITROGEN. This system allows us to perform a MTS for compounds able to enhance luciferase activity.
LMNA sequences (1278 bp of exon 11, intron 11 and 46 bp of […]) were PCR-amplified from either control or patient's cells genomic DNA with specific primer PCR fragments were purified with Concert Rapid PCR purification system (Invitrogen) and subcloned at the BamHI and EcoRI restriction sites of the pSppβm3 S1 plasmid containing the βGlobin cassette (Labourier et al., 1999—Recognition of exonic splicing enhancer sequences by the Drosophila splicing repressor RSF1. Nucleic Acids Res. 27, 2377-2386) to give the βGlo3S1LMNAwt and βGlo3S1LMNAmut constructs. The chimeric (3Glo-LMNA sequences were then inserted into the pcDNA3.1D/V5-His-TOPO vector (Invitrogen) to be used in transfection and in vitro splicing experiments. A single initiation codon ATG was kept in exon 11 of LMNA and LMNA sequences described above were fused at their 3′ end to Fyrefly luciferase cDNA (LMNAlucWT) in order that removal of intron 11 generates a transcript that encode a fusion protein harbouring luciferase activity, whereas usage of the cryptic splice site of mutated exon 11 (LMNAlucMut) will remove the initiation codon preventing luciferase expression. Both sequences were cloned in pcDNA3 Flp-In vector (Invitrogen).
A stable 293 cell line containing a single copy of LMNAlucMut minigene was obtained using the Flp-In system from (Invitrogen) according to manufacture procedure. Several clones were obtained and only one clone was used to screen the whole chemical library (293FLP LMNA LUC cells #8).
In a 96 Well Plate sterile, V-shape one put […] of drug compounds at 50 mM and then add 49.5 μl of 10% DMSO.
One pipets […] of drug at 500 μM and adds 200 μL of DMEM+Hygromycin B. At this stage the concentration of drug compound is 10 μM. One shares out 100 μl in a 96 Well Microplate sterile, flat bottom (further called luciferase plate) and 50 μl in other one (further called toxicity plate).
One washes 293FLP LMNA LUC cells once with D-PBS then adds 1 ml trypsin EDTA. Incubation at 37° C. for 2-3 minutes is proceeded. Then one adds 9 ml DMEM (with 10% FCS, P/S).
Cell concentration is brought at 10^5 cells per ml with DMEM+Hygromycin B to have 10^4 cells per 100 μl.
100 μl of suspension cells is added (at 10^4 cells per 100 μl) so final concentration of compounds is […].
Medium of the wells is gently removed then washed once by adding slowly 150 μl of D-PBS 1×. D-PBS is removed. 40 μl of PLB 1× is added and incubated at RT for 30 minutes. […]

SMILES: Cc1cccc(Nc2cc(C)c3ccccc3n2)n1 [Compound 45, 4-methyl-N-(6-methylpyridin-2-yl)quinolin-2-amine]
- Inhibition of p24 production in HIV infected PBMCs from different donors (HIV-1): 4 out of 4 donnors
- fold induction at 5 µM [1]: 3.08

SMILES: Cc1cc(OC(F)(F)F)ccc1Nc1ccc2ccccc2n1 [Compound 82, N-[2-methyl-4-(trifluoromethoxy)phenyl]quinolin-2-amine]
- Inhibition of p24 production in HIV infected PBMCs from different donors (HIV-1): 4 out of 4 donnors
- fold induction at 5 µM [1]: 3.41

SMILES: Fc1cccc(Nc2ccc3ccccc3n2)c1 [Compound 86, N-(3-fluorophenyl)quinolin-2-amine]
- Inhibition of p24 production in HIV infected PBMCs from different donors (HIV-1): 3 out of 4 donnors
- fold induction at 5 µM [1]: 2.77

SMILES: O=[N+]([O-])c1cccnc1Nc1cnc2ccccc2c1 [Compound 106, N-(3-nitropyridin-2-yl)quinolin-3-amine]
- pIC50 (HIV-1; Human immunodeficiency virus 1, PBMC, p24 production in HIV infected PBMCs, dose response curves): 9.30
- Inhibition of p24 production in HIV infected PBMCs from different donors (HIV-1): 6 out of 6 donnors
- fold induction at 5 µM [1]: 2.77

SMILES: Clc1ccc2nc(Nc3cnccn3)ccc2c1 [Compound 109, 6-chloro-N-(pyrazin-2-yl)quinolin-2-amine]
- Inhibition of p24 production in HIV infected PBMCs from different donors (HIV-1): 8 out of 8 donnors
- fold induction at 5 µM [1]: 2.79

SMILES: Cc1ccnc(Nc2cnc3ccccc3n2)c1 [Compound 136, N-(4-methylpyridin-2-yl)quinoxalin-2-amine]
- Inhibition of p24 production in HIV infected PBMCs from different donors (HIV-1): 6 out of 8 donnors
- fold induction at 5 µM [1]: 5.2
